What was measured:
JMJD2C = JMJD2C (Homo sapiens (Human), UniProt Q9H3R0); assay: In vitro enzyme inhibition assay for JMJD2C activity (TR-FRET); type: biochemical
Description: This assay determines the ability of a test compound to inhibit JMJD2C demethylase activity. Baculovirus expressed JMJD2C (GenBank Accession #BC143571, AA 2-372) was purchased from BPS Bioscience (Cat#50105).
The ability of test compounds to inhibit the activity of JMJD2C was determined in 384-well plate format under the following reaction conditions: 0.3 nM JMJD2C, 300 nM H3K9me3-biotin labeled peptide (Anaspec cat #64360), 2 μM alpha-ketoglutaric acid in assay buffer of 50 mM HEPES, pH7.3, 0.005% Brij35, 0.5 mM TCEP, 0.2 mg/ml BSA, 50 μM sodium L-ascorbate, and 2 μM ammonium iron(II) sulfate. Reaction product was determined quantitatively by TR-FRET after the addition of detection reagent Phycolink Streptavidin-allophycocyanin (Prozyme) and Europium-anti-di-methylated histone H3 lysine 9 (H3K9me2) antibody (PerkinElmer) in the presence of 5 mM EDTA in LANCE detection buffer (PerkinElmer) at a final concentration of 50 nM and 1 nM, respectively.
(§1) The assay reaction was initiated by the following: 2 μl of the mixture of 900 nM H3K9me3-biotin labeled peptide and 6 μM alpha-ketoglutaric acid with 2 μl of 11-point serial diluted inhibitor in 3% DMSO were added to each well of the plate, followed by the addition of 2 μl of 0.9 nM JMJD2C to initiate the reaction. The reaction mixture was incubated at RT for 30 min, and terminated by the addition of 6 μl of 5 mM EDTA in LANCE detection buffer containing 100 nM Phycolink Streptavidin-allophycocyanin and 2 nM Europium-anti-H3K9me2 antibody. Plates were read by EnVisionMultilabel Reader in TR-FRET mode (excitation at 320 nm, emission at 615 nm and 665 nm) after 1 hr incubation at RT. A ratio was calculated (665/615) for each well and fitted to determine inhibition constant (IC50).

Jarid1B = Jarid1B (Homo sapiens (Human), UniProt Q9UGL1); assay: In vitro enzyme inhibition assay for Jarid1B activity (TR-FRET); type: biochemical
Description: The ability of test compounds to inhibit the activity of Jarid1B was determined in 384-well plate format under the following reaction conditions: 0.8 nM Jarid1B, 300 nM H3K4me3-biotin labeled peptide (Anaspec cat #64357), 2 μM alpha-ketoglutaric acid in assay buffer of 50 mM HEPES, pH7.3, 0.005% Brij35, 0.5 mM TCEP, 0.2 mg/ml BSA, 50 μM sodium L-ascorbate, and 2 μM ammonium iron(II) sulfate. Reaction product was determined quantitatively by TR-FRET after the addition of detection reagent Phycolink Streptavidin-allophycocyanin (Prozyme) and Europium-anti-H3K4me or -H3K4me2 antibody (PerkinElmer) in the presence of 5 mM EDTA in LANCE detection buffer (PerkinElmer) at a final concentration of 25 nM and 1 nM, respectively.
as §1, with “nM H3K4me3-biotin” for “nM H3K9me3-biotin”, “DMSO was” for “DMSO were”, “of 2.4” for “of 0.9”, “nM Jarid1B” for “nM JMJD2C”, “containing 50” for “containing 100”, “nM Europium-anti-H3K4me/H3K4me2” for “nM Europium-anti-H3K9me2”

[1] = system: esophageal squamous cell carcinoma KYSE-150 cells; assay: Cellular IC50 in KYSE-150 cells; type: cell-based; conditions: Homo sapiens, one class given per A and B pair
From the text: Table 7 provides IC50 values of various compounds disclosed herein, tested in cellular human esophageal squamous cell carcinoma KYSE-150 cells: […]

JMJD3 = JMJD3 (Homo sapiens, UniProt O15054); assay: In vitro enzyme inhibition assay for JMJD3 activity (TR-FRET); type: biochemical
Description: This assay determines the ability of a test compound to inhibit JMJD3 demethylase activity. Baculovirus expressed JMJD3 (GenBank Accession #NM-001080424, AA1043-end) was purchased from BPS Bioscience (Cat#50115).
The enzymatic assay of JMJD3 activity is based upon Time Resolved-Fluorescence Resonance Energy Transfer (TR-FRET) detection. The ability of test compounds to inhibit the activity of JMJD3 was determined in 384-well plate format under the following reaction conditions: 5 nM JMJD3, 250 nM H3K27me3-biotin labeled peptide (Anaspec cat #64367), 0.4 to 2 μM α-ketoglutaric acid in assay buffer of 50 mM HEPES, pH7.3, 0.005% Brij35, 0.5 mM TCEP, 0.2 mg/ml BSA, 50 μM sodium L-ascorbate, and 5 μM ammonium iron(II) sulfate. Reaction product was determined quantitatively by TR-FRET after the addition of detection reagent Phycolink Streptavidin-allophycocyanin (Prozyme) and Europium-anti-H3K27me2 antibody (PerkinElmer) in the presence of 5 mM EDTA in LANCE detection buffer (PerkinElmer) at a final concentration of 50 nM and 1 nM, respectively.
The assay reaction was initiated by the following: […] of the mixture of 750 nM H3K27me3-biotin labeled peptide and 1.2 to 6 μM alpha-ketoglutaric acid with 2 μL of 11-point serial diluted inhibitor in 3% DMSO were added to each well of plate, followed by the addition of 2 μl of 15 nM JMJD3 to initiate the reaction. The reaction mixture was incubated at RT for 30 min, and terminated by the addition of 6 μL of 5 mM EDTA in LANCE detection buffer containing 100 nM Phycolink Streptavidin-allophycocyanin and 2 nM Europium-anti-H3K27me2 antibody. Plates were read by EnVisionMultilabel Reader in TR-FRET mode (excitation at 320 nm, emission at 615 nm and 665 nm) after 1 hr incubation at RT. A ratio from the readout of 665/615 was calculated for each well and fitted to determine inhibition constant (IC50).

[2] = Table 4, cell gives A/B enantiomer values
[3] = Table 5, one class given per A and B pair

Chain of Jarid1B (Q9UGL1 whole entry, species assumed): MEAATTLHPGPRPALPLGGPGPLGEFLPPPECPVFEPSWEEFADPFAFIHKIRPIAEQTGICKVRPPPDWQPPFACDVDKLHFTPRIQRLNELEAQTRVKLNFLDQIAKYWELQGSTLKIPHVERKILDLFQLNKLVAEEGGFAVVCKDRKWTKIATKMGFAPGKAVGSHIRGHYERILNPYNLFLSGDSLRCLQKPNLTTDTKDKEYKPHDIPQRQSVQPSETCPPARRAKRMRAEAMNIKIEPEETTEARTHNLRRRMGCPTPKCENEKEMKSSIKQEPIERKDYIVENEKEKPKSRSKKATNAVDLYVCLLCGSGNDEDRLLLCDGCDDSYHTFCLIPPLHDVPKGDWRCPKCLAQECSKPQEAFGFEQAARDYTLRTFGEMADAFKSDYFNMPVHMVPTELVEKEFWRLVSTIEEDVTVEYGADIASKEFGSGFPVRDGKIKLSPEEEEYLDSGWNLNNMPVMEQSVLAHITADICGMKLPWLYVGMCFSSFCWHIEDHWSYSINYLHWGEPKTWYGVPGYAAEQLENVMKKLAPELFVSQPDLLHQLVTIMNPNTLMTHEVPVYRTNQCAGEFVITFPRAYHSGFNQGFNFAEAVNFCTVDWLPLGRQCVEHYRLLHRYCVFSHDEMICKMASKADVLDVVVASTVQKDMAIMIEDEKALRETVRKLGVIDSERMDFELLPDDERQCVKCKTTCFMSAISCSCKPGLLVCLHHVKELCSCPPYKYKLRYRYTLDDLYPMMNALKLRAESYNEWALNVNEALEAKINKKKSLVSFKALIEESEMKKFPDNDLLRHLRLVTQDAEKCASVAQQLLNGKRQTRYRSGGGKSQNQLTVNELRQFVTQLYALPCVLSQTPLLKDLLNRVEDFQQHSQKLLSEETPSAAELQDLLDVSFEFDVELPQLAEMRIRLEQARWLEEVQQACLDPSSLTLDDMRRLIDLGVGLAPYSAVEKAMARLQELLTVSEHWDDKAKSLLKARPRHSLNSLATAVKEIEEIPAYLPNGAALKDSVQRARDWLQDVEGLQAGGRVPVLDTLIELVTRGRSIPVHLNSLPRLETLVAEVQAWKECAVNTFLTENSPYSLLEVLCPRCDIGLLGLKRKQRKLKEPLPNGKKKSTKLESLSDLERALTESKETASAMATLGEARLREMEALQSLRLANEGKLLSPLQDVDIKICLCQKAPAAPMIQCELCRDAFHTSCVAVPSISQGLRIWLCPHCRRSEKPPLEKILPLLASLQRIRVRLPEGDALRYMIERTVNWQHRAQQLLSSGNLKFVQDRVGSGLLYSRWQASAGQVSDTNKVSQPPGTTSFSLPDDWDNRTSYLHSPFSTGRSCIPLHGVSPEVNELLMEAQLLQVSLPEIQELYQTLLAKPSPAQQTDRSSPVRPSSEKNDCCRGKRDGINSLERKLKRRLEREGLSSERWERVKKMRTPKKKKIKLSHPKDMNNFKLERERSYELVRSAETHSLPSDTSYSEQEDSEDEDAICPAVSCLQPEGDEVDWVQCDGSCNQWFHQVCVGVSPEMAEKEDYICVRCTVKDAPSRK
Chain of JMJD2C (Q9H3R0 2-372): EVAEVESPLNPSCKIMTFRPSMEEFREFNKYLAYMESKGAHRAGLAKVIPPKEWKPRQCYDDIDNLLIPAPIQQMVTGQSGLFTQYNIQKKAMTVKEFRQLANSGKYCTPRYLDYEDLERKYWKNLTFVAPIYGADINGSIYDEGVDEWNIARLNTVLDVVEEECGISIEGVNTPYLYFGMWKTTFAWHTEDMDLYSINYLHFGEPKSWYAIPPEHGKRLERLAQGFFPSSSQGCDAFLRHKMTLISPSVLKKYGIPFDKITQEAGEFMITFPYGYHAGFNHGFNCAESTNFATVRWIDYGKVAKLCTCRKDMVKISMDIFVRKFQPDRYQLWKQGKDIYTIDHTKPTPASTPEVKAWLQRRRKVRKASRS

SMILES | IC50 (JMJD2C; [2]) [µM] | IC50 (JMJD2C; [3]) [µM] | IC50 (Jarid1B; [2]) [µM] | IC50 (Jarid1B; [3]) [µM] | IC50 [1] [µM] | IC50 (JMJD3; [2]) [µM] | IC50 (JMJD3; [3]) [µM]
Cc1ccc(N(C)c2ccc3c(c2)CCN[C@H]3CNc2cnccc2C(=O)O)cc1 [Example 1B, 3-[({(1R)-6-[methyl(4-methylphenyl)amino]-1,2,3,4-tetrahydroisoquinolyl}methyl)amino]pyridine-4-carboxylic acid] | 0.1 to 1 | 0.1 to 1 | ≤ 0.1 | ≤ 0.1 | 1 to 10 | – | –
CC(C)c1ccc(N(C)c2ccc3c(c2)CCN[C@H]3CNc2cnccc2C(=O)O)cc1 [Example 3B, 3-{[((1R)-6-{methyl[4-isopropylphenyl]amino}-1,2,3,4-tetrahydroisoquinolyl)methyl]amino}pyridine-4-carboxylic acid] | 0.1 to 1 | 0.1 to 1 | ≤ 0.1 | ≤ 0.1 | ≤ 0.1 | 0.1 to 1 | 0.1 to 1
Cc1cc(OCC2CC2)ccc1-c1ccc2c(c1)CCN[C@@H]2CNc1cnccc1C(=O)O [Example 4A, 3-[({(1S)-6-[4-(cyclopropylmethoxy)-2-methylphenyl]-1,2,3,4-tetrahydro-isoquinolyl}methyl)amino]pyridine-4-carboxylic acid] | 1 to 10 | 0.1 to 1 | ≤ 0.1 | ≤ 0.1 | 0.1 to 1 | 1 to 10 | > 10
Cc1cc(OCC2CC2)ccc1-c1ccc2c(c1)CCN[C@H]2CNc1cnccc1C(=O)O [Example 4B, 3-[({(1R)-6-[4-(cyclopropylmethoxy)-2-methylphenyl]-1,2,3,4-tetrahydro-isoquinolyl}methyl)amino]pyridine-4-carboxylic acid] | 1 to 10 | 0.1 to 1 | ≤ 0.1 | ≤ 0.1 | 0.1 to 1 | > 10 | > 10
Cc1ccc(N(C)c2ccc3c(c2)CN[C@@H]3CNc2cnccc2C(=O)O)cc1 [Example 5A, 3-[({(1S)-5-[methyl(4-tolyl)amino]isoindolinyl}methyl)amino]pyridine-4-carboxylic acid] | – | – | ≤ 0.1 | ≤ 0.1 | 1 to 10 | – | –
Cc1ccc(N(C)c2ccc3c(c2)CN[C@H]3CNc2cnccc2C(=O)O)cc1 [Example 5B, 3-[({(1R)-5-[methyl(4-tolyl)amino]isoindolinyl}methyl)amino] pyridine-4-carboxylic acid] | – | – | ≤ 0.1 | ≤ 0.1 | 1 to 10 | – | –
CC(C)c1ccc(N(C)c2ccc3c(c2)CN[C@@H]3CNc2cnccc2C(=O)O)cc1 [Example 6A, 3-{[((1S)-5-{methyl[4-isopropylphenyl]amino}isoindolinyl)methyl]amino}pyridine-4-carboxylic acid] | 1 to 10 | 1 to 10 | ≤ 0.1 | ≤ 0.1 | 0.1 to 1 | 1 to 10 | 1 to 10
CC(C)c1ccc(N(C)c2ccc3c(c2)CN[C@H]3CNc2cnccc2C(=O)O)cc1 [Example 6B, 3-{[((1R)-5-{methyl[4-isopropylphenyl]amino}isoindolinyl)methyl]amino}pyridine-4-carboxylic acid] | 1 to 10 | 1 to 10 | ≤ 0.1 | ≤ 0.1 | 0.1 to 1 | > 10 | 1 to 10
Cc1cc(OCC(F)(F)F)ccc1-c1ccc2c(c1)CN[C@@H]2CNc1cnccc1C(=O)O [Example 7A, 3-[({(1S)-5-[2-methyl-4-(2,2,2-trifluoro-ethoxy)phenyl]isoindolinyl}methyl)amino]pyridine-4-carboxylic acid] | 1 to 10 | 1 to 10 | ≤ 0.1 | ≤ 0.1 | 0.1 to 1 | 0.1 to 1 | 1 to 10
Cc1cc(OCC(F)(F)F)ccc1-c1ccc2c(c1)CN[C@H]2CNc1cnccc1C(=O)O [Example 7B, 3-[({(1R)-5-[2-methyl-4-(2,2,2-trifluoro-ethoxy)phenyl]isoindolinyl}methyl)amino] pyridine-4-carboxylic acid] | 1 to 10 | 1 to 10 | ≤ 0.1 | ≤ 0.1 | 0.1 to 1 | 1 to 10 | 1 to 10
CCc1ccccc1-c1ccc2c(c1)CCN(C)[C@H]2CNc1cnccc1C(=O)O [Example 15A, (R)-3-(((6-(2-ethylphenyl)-2-methyl-1,2,3,4-tetrahydroisoquinolin-1-yl)methyl)amino)isonicotinic acid] | – | 0.1 to 1 | – | ≤ 0.1 | – | – | 1 to 10
CCc1ccccc1-c1ccc2c(c1)CCN(C)[C@@H]2CNc1cnccc1C(=O)O [Example 15B, (S)-3-(((6-(2-ethylphenyl)-2-methyl-1,2,3,4-tetrahydroisoquinolin-1-yl)methyl)amino)isonicotinic acid] | – | 0.1 to 1 | – | ≤ 0.1 | – | – | 1 to 10
CC(C)c1ccccc1-c1ccc2c(c1)CCN(C)[C@H]2CNc1cnccc1C(=O)O [Example 16A, (R)-3-(((6-(2-isopropylphenyl)-2-methyl-1,2,3,4-tetrahydroisoquinolin-1-yl)methyl)amino)isonicotinic acid] | – | 1 to 10 | – | ≤ 0.1 | – | – | –
CC(C)c1ccccc1-c1ccc2c(c1)CCN(C)[C@@H]2CNc1cnccc1C(=O)O [Example 16B, (S)-3-(((6-(2-isopropylphenyl)-2-methyl-1,2,3,4-tetrahydroisoquinolin-1-yl)methyl)amino)isonicotinic acid] | – | 1 to 10 | – | ≤ 0.1 | – | – | –
Cc1cccc(C)c1-c1ccc2c(c1)CCN(C)[C@H]2CNc1cnccc1C(=O)O [Example 17A, (R)-3-(((6-(2,6-dimethylphenyl)-2-methyl-1,2,3,4-tetrahydroisoquinolin-1-yl)methyl)amino)isonicotinic acid] | – | 1 to 10 | – | ≤ 0.1 | – | – | –
Cc1cccc(C)c1-c1ccc2c(c1)CCN(C)[C@@H]2CNc1cnccc1C(=O)O [Example 17B, (S)-3-(((6-(2,6-dimethylphenyl)-2-methyl-1,2,3,4-tetrahydroisoquinolin-1-yl)methyl)amino)isonicotinic acid] | – | 1 to 10 | – | ≤ 0.1 | – | – | –

Source: patent publication US10059687B2, “Histone demethylase inhibitors” (CELGENE QUANTICEL RESEARCH, INC., priority 2015, dated 2018)
